In series [1] the test system is SNB-19 glioblastoma cells. The series is described as follows: MTT cytotoxicity assay, SNB-19. The conditions noted are these: Homo sapiens, 72 h incubation, mean ± SEM of three experiments, read-out: Cytotoxicity (GI50) against SNB-19. Type of series: cell-based. The method, boiled down: (§1)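 Cells were grown in RPMI-1640 with 10% embryonic calf serum at 37 °C, 5% CO2, and exposed to compounds in DMSO for 72 h, triplicate wells per concentration. MTT (1%) was added for 4 h, formazan dissolved in DMSO and read at 450 nm; GI50 was the concentration halving optical density versus untreated control.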
A general note: Tetrazolium dyes change colour on reduction, which living cells bring about.

In series [2] the test system is U-87MG glioblastoma cells. The series is described as follows: MTT cytotoxicity assay, U-87MG. Type of series: cell-based. The conditions noted are these: Homo sapiens, 72 h incubation, mean ± SEM of three experiments, read-out: Cytotoxicity (GI50) against U-87MG. Put shortly: as §1
Series [3] relates to T98G glioblastoma cells. As to the kind of experiment: MTT cytotoxicity assay, T98G. It counts as cell-based. The conditions noted are these: Homo sapiens, 72 h incubation, mean ± SEM of three experiments, read-out: Cytotoxicity (GI50) against T98G. Put shortly:
as §1

The test system of series [4] is LNCAP prostate cancer cells. As to the kind of experiment: MTT cytotoxicity assay, LNCAP. Type of series: cell-based, human. The note with it: Homo sapiens, LNCaP, 72 h, 72 h incubation, mean ± SEM of three experiments, read-out: Cytotoxicity (GI50) against LNCAP. The method, boiled down:
as §1

The test system of series [5] is DU-145 prostate cancer cells. The series is described as follows: MTT cytotoxicity assay, DU-145. Type of series: cell-based, human. The note with it: 72 h incubation, mean ± SEM of three experiments, read-out: Cytotoxicity (GI50) against DU-145. Put shortly:
as §1

In series [6] the test system is MT-4 cells of T-cellular human leucosis. As to the kind of experiment: MTT cytotoxicity assay, MT-4. It counts as cell-based. The note with it: MT4, 72 h incubation, mean ± SEM of three experiments, read-out: Cytotoxicity (GI50) against MT-4. The method, boiled down: as §1
Series [7] has as its system MDA-MB-231 breast cancer cells. The series is described as follows: MTT cytotoxicity assay, MDA-MB-231. Type of series: cell-based. The conditions noted are these: Homo sapiens, 72 h incubation, mean ± SEM of three experiments, read-out: Cytotoxicity (GI50) against MDA-MB-231. The method, boiled down: as §1
A short description of series [8]: MTT cytotoxicity assay, normal hTERT-immortalized lung fibroblasts. It counts as cell-based. The conditions noted are these: human, hTERT-immortalized lung fibroblasts (normal cell line), 72 h incubation, mean ± SEM of three experiments, read-out: Cytotoxicity (GI50) against hTERT Lung Fibroblasts. Put shortly:
as §1

In series [9] the test system is DU-145 cells. As to the kind of experiment: Cell cycle analysis by flow cytometry (Hoechst 33342), DU-145. The conditions noted are these: DU-145, treated at GI50 concentration, 24 h. Type of series: cell-based, human. As to the method: We have carried out flow cytometric study of compounds 13, 16 and the isomeric compound 25 (Table 4, Figure 4G,H). Concentrations of 16 and 25 were taken as 5.4 and 14.5 μM, respectively, as per cytotoxic studies (Table 1). After examining the data for 13 (Figure 4G, Table 4), a good number of cells are arrested in Sub-G1, G0/G1 and S phase. Biosynthetic activity is very high during Sub-G1 phase; this is probably achieved by enhancing of apoptosis. The isomeric molecule 25 arrest G0/G1 and S phases, i.e., affecting the DNA synthesis/replication mechanism. Similarly, for 25 a different pattern is observed, i.e., variations at S and G2/M phases were observed, in comparison to the control. […] Some difference in the mechanism of operation of 13 and 25 has been observed during the progression of cell cycle like: Sub-G1 phase was highly disturbed by 13 and S and G0/G1 phases were highly disturbed by 25.
(§2) For cell cycle analysis cells were seeded in 6-well plates (30,000 per plate) and incubate for adhesion for 24 h. […] Cells were washed with PBS twice, harvested, pelleted and resuspended in 0.5 mL of PBS. For staining the Hoechst 33342 Ready Flow Reagent (Invitrogen) was used according to the instruction. CytoFLEX flow cytometer (Beckman Coulter) was used for analysis. The results are presented as a percentage of cell population standing in different stages of the cell cycle.

Series [10] relates to DU-145 cells. The series is described as follows: DNA synthesis investigation (BrdU/PI flow cytometry), DU-145. It counts as cell-based, human. The conditions noted are these: DU-145, treated at GI50 concentration, 24 h, BrdU 30 min.
Protocol: (§3) Cell cycle analysis was performed by Flow Cytometry using BrdU and PI staining [63]. For this experiment cells were seeded in 6-well plates (30,000 per plate) and incubate for adhesion for 24 h. […] For the next step the BrdU stock was added at a final concentration of 30 µM and cells were incubated for 30 min. Cells were washed with PBS, harvested using trypsine and resuspended at 0.3 mL of PBS. Permeabilization of cell membrane was performed as follows: 0.7 mL of ice-cold 100% EtOH was added into each sample, mixed gently and incubate at 4 °C for 1 h. Cells were pelleted and supernatant was removed completely. Then 0.5 mL of 2 N HCl/0.5% Triton X-100 was added and samples were incubated 30 min at room temperature. Cells were pelleted again, supernatant was removed. The pellet was resuspended in 0.5 mL of 0.1 M sodium tetraborate for 2 min and cells were pelleted again, washed with 150 µL of PBS/1% BSA and resuspended in 50 µM 0.5% Tween 20/1% BSA/PBS. […] After that the samples were resuspended in 0.5 mL of PBS containing 10 mg/mL RNAse A and 20 mg/mL PI. Samples were incubated at room temperature for 30 min and analyzed immediately or store at 4 °C. CytoFLEX flow cytometer (Beckman Coulter) was used for analysis. The results are presented as a percentage of cell population standing in DNA synthesis process.
For series [11], the system named is SNB-19 cells. As to the kind of experiment: Cell cycle analysis by flow cytometry (Hoechst 33342), SNB-19. Type of series: cell-based, human. The conditions noted are these: SNB-19, treated at GI50 concentration, 24 h. How it is done: Due to the fact that the implementation of the antitumor potential of the currently existing antitumor agents is carried out by acting on various biological targets, at the next stage we performed the cell cycle analysis and DNA synthesis. Cell cycle analysis of 1-hydroxy-4-phenyl-9,10-anthraquinone 13, 1-hydroxy-4-(2,3-dimethoxyphenyl)-9,10- anthraquinone 16, 1-hydroxy-4-(furan-3-yl)-9,10-anthraquinone 23 and 1-hydroxy- 2-(2,3-dimethoxyphenyl)-9,10-anthraquinone 28 against SNB-19 cells for 24 h produced interesting results. After examining the data for compounds 13 and 16 (Table 3, Figure 4C,D), good number of cells are distributed in S phase, i.e., initiated DNA replication mechanism and also in G0/G1 phase, i.e., initial phase of cell cycle. G1 and G2 are the growth phases in cell cycle analysis, whereas S phase is a synthetic phase wherein DNA replication and DNA synthesis take place. The 2-aryl substituted compound 28 initiated the G0/G1 phase in analogy with doxorubicin and mitomycin. […] Further, compounds play a vital role in controlling the regulation of Sub-G1 and G2/M phases. Some difference in the mechanism of operation of 4-aryl substituted 13,16 and 2-aryl substituted 9,10-anthraquinones 28 has been observed during the progression of cell cycle like: S phase was highly disturbed by 13; G0/G1 phase was highly disturbed by 28. […] This observation can be explained by the influence on the cell repair systems that respond to the intercalation of compounds in DNA. […] Further, mitoxantrone promotes the arrest of S phase of cell cycle.
as §2
On the technique in general: A flow cytometer gives signals particle by particle.

The subject of series [12] is SNB-19 cells. As to the kind of experiment: DNA synthesis investigation (BrdU/PI flow cytometry), SNB-19. Type of series: cell-based, human. The conditions noted are these: SNB-19, treated at GI50 concentration, 24 h, BrdU 30 min.
Protocol: as §3

Read-outs that look alike come from different tables or passages of the source. Bounds are passed on as bounds.

As a reminder, the GI50 is the concentration giving 50% growth inhibition. As a reminder, the melting point is the temperature, or range, at which the solid turns liquid. `O=C1c2ccccc2C(=O)c2c1ccc(-c1ccccc1)c2O` [Compound 25, 1-Hydroxy-2-phenylanthracene-9,10-dione]: the melting point is 174.1 °C (dec.). In [1], the GI50 came to 6.8 ± 1.19 µM. In addition, the GI50 in series [2] was over 100 µM. Besides, the GI50 in [3] turned out to be 21.5 ± 0.92 µM. The GI50 in series [4] was 32.1 ± 8.55 µM. Also, the GI50 in series [5] (Homo sapiens, DU-145, 72 h) was 14.5 ± 0.73 µM. Also, in series [6], the GI50 was over 100 µM. Further, the GI50 in series [7] came out at 16.5 ± 0.88 µM. The GI50 at 72 h in series [8] was determined as 44.6 ± 2.46 µM. In addition, in series [9], the “Population (% Cell Distribution) G0/G1” value was 32.3%, the “Population (% Cell Distribution) G2/M” value was 7.4%, the “Population (% Cell Distribution) S” value amounted to 32.4% and the “Population (% Cell Distribution) Sub-G1” value was determined as 25.9%. For the same molecule, in series [9], the “Population (% Cell Distribution) Super-G2” value was 2.0%. Moreover, the “Population (% Cell Distribution) DNA Synthesis” value in series [10] came out at 20.27%.

Regarding `COc1cccc2c1C(=O)c1c(O)c3c(c(O)c1C2=O)C[C@@](O)(C(=O)CO)C[C@@H]3O[C@H]1C[C@H](N)[C@H](O)[C@H](C)O1` [DOX, Doxorubicin, reference compound], the GI50 in series [1] stood at 7.62 ± 0.69 µM; in series [2] it was 6.11 ± 0.15 µM; in [3], 4.5 ± 0.46 µM; in [4], 2.11 ± 0.4 µM; in series [5] it was 6.61 ± 0.34 µM; in series [6], 0.2 ± 0.04 µM. Besides, the GI50 in [7] is 7.9 ± 0.51 µM. Further, the GI50 at 72 h in series [8] was 2.2 ± 0.58 µM. Also, the “Population (% Cell Distribution) G0/G1” value in [11] was determined as 49.6%; in series [9] it was 48.8%. In addition, the “Population (% Cell Distribution) G2/M” value in [11] was found to be 19.6%; in [9], 15.9%. The “Population (% Cell Distribution) S” value is recorded as 23.2% in series [11] and 28.1% in series [9]. Moreover, the “Population (% Cell Distribution) Sub-G1” value in [11] is 1.9%; in series [9], 0.3%. The entries for the “Population (% Cell Distribution) Super-G2” value in [11] and in series [9] were 5.7% and 6.8%, respectively. Further, the “Population (% Cell Distribution) DNA Synthesis” value in [12] came to 11.81%; in series [10], 10.76%.

Turning to `CO[C@@]12[C@H](COC(N)=O)C3=C(C(=O)C(C)=C(N)C3=O)N1C[C@@H]1N[C@@H]12` [Mitomycin C, reference compound], in series [11], the “Population (% Cell Distribution) G0/G1” value was 63.6%, the “Population (% Cell Distribution) G2/M” value was 4.1%, the “Population (% Cell Distribution) S” value was found to be 25.2% and the “Population (% Cell Distribution) Sub-G1” value was 0.0%. Moreover, the “Population (% Cell Distribution) Super-G2” value in series [11] is reported as 7.0%. Also, in [12], the “Population (% Cell Distribution) DNA Synthesis” value amounted to 7.44%. Also, in series [9], the “Population (% Cell Distribution) G0/G1” value worked out at 50.3%, the “Population (% Cell Distribution) G2/M” value worked out at 16.3%, the “Population (% Cell Distribution) S” value was 13.2% and the “Population (% Cell Distribution) Sub-G1” value came to 0.1%. Moreover, in series [9], the “Population (% Cell Distribution) Super-G2” value is 20.2%. Moreover, the “Population (% Cell Distribution) DNA Synthesis” value in [10] is reported as 5.74%.
